Legend:
[1] = tested on: deoxyribose; experiment: TBARS assay, chelants during ultrasound exposure, ferric iron (Example 2); format: biochemical; details: 0.02-0.03 mM ferric iron, 0.04-0.05 mM chelant, 0.01% hydrogen peroxide, pH 7.5, 30 W 2 MHz 10 min
Experimental: (§1) The following example uses the thiobarbituric acid-reactive substances (TBARS) assay to identify chelants that enhance radical production during ultrasound exposure. All solutions were prepared in pH 7.5 phosphate buffer containing approximately 2 mM deoxyribose, 0.01% hydrogen peroxide, 0.02-0.03 mM ferric iron, and 0.04-0.05 mM chelant. Solutions were sonicated at 30 W, 2 MHz, 32-34 degrees Celsius for ten minutes using a PZT-8 1.8 cm diameter custom transducer. The sonicated solution was placed on an orbit shaker rotating at 25 RPM to ensure even sonication of the solution while the transducer was held stationary. Control solutions were placed in a controlled temperature bath at 32-34 degrees Celsius without sonication. After 10 minutes of treatment, 1 mL test solution was placed in a test tube followed by 2 mL of 1% 2-thiobarbituric acid and 2 mL of 2.8% trichloroacetic acid. The test tube was sealed and heated to 90 degrees Celsius for 30 minutes and allowed to cool to room temperature for 20 minutes. The absorbance at 532 nm was measured. The enhanced radical production during ultrasound exposure was determined by comparing the amount of deoxyribose degradation that occurs in the sonicated solution versus the control solution using the following equation: [formula]

[2] = tested on: deoxyribose; experiment: TBARS assay, chelants during ultrasound exposure, ferrous iron (Example 1); format: biochemical; details: 0.025 mM ferrous iron, 0.03-0.04 mM chelant, 0.01% hydrogen peroxide, pH 7.5, 30 W 2 MHz 10 min
Experimental: as §1, with “peroxide, 0.025” for “peroxide, 0.02-0.03”, “mM ferrous” for “mM ferric”, “and 0.03-0.04” for “and 0.04-0.05”, “exposure is” for “exposure was”

[3] = tested on: deoxyribose; experiment: TBARS assay, additives in solutions containing iron or iron plus a chelant, ultrasound (Example 5); format: biochemical; details: 0.08-0.1 mM ferric iron; EDTA 0.15 mM; 30 W 2 MHz 10 min
Experimental: The following example uses the thiobarbituric acid-reactive substances (TBARS) assay to identify compounds that enhance radical production during ultrasound exposure of solutions containing iron or iron plus a chelant. All solutions were prepared in pH 7.5 phosphate buffer containing approximately 2 mM deoxyribose, 0.01% hydrogen peroxide, 0.08-0.1 mM ferric iron, and the additives indicated in the table below. Solutions were sonicated at 30 W, 2 MHz, 32-34 degrees Celsius for ten minutes using a PZT-8 1.8 cm diameter custom transducer. The sonicated solution was placed on an orbit shaker rotating at 25 RPM to ensure even sonication of the solution while the transducer was held stationary. Control solutions were placed in a controlled temperature bath at 32-34 degrees Celsius without sonication. […] The test tube was sealed and heated to 90 degrees Celsius for 30 minutes and allowed to cool to room temperature for 20 minutes. The absorbance at 532 nm was measured. The enhanced radical production during ultrasound exposure was determined by comparing the amount of deoxyribose degradation that occurs in the sonicated solution versus the control solution using the following equation: [formula]

[4] = on chelation of iron; cited from earlier work

Compound: O=C(O)CN(CCN(CC(=O)O)CC(=O)O)CC(=O)O [Ethylenediaminetetraacetic acid]
- % Ultrasound Mediated Activity vs Control [1]: 575%
- % Ultrasound Mediated Activity vs Control [2]: 64%
- % Ultrasound Mediated Activity vs Control [3]: 277%
- lowering of the redox potential of Fe(III)/Fe(II) [4]: 0.65 V

From patent publication US20030082101A1, “Accelerators for increasing the rate of formation of free radicals and reactive oxygen species” (Cavalier Discovery, priority 2001, published 2003)
